Like-named read-outs stand apart in the source and are kept apart here. Residues, ends and D or L forms follow the SMILES beside them. *: point of attachment. Decanoyl = CCCCCCCCCC(=O)*; CH2Cl = ClC*
Tests used:
[1] = molecular target: Recombinant human Furin protein (Homo sapiens, UniProt P09958); assay: Inhibition of proteolytic enzyme (Furin) activity, fluorogenic substrate pGlu-Arg-Thr-Lys-Arg-AMC; format: biochemical; settings: for inhibition at 6.25 µg/mL: at 6.25 μg/ml; for inhibition at 100 µg/mL: at 100 μg/ml
SARS-CoV-2 = assay: Anti-viral assay against SARS-CoV-2 in Vero E6 cells (qRT-PCR viral load); format: cell-based; settings: Ribavirin 2 μM, compared to infected cells only
[2] = read-out: Percentage inhibition of Furin
[3] = read-out: IC50, inhibition of Furin (converted)

Chain of Recombinant human Furin protein (P09958 108-794): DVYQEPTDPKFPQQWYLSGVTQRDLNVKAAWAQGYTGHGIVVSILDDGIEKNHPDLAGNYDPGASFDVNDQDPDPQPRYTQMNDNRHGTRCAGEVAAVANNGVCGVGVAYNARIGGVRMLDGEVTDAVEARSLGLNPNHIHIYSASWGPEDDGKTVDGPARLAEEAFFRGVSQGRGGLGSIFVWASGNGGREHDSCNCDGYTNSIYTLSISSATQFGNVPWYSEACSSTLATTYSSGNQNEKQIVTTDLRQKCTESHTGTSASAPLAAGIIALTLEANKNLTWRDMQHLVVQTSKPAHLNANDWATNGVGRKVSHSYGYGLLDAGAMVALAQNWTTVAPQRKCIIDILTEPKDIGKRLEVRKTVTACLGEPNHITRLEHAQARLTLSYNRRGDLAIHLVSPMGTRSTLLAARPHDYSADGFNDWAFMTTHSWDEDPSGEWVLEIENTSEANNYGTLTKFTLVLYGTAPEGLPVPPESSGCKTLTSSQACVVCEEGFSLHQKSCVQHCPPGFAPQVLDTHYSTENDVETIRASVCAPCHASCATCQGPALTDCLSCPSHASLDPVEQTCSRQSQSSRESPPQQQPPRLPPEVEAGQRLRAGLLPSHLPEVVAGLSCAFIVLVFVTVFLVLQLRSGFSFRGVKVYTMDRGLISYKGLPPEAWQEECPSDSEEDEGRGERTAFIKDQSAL

Row | SMILES | IC50 ([1]; read-out: IC50, inhibition of Furin (positive control)) [µM] | inhibition at 6.25 µg/mL [1, 2] [%] | inhibition at 25 µg/mL ([1]; at 25 μg/ml, read-out: Percentage inhibition of Furin) [%] | inhibition at 100 µg/mL [1, 2] [%] | IC50 [1, 3] [µM] | reduction of viral load (SARS-CoV-2) [%]
1 | CCCCCCCCCC(=O)N[C@@H](CCCNC(=N)N)C(=O)N[C@H](C(=O)N[C@@H](CCCCN)C(=O)N[C@@H](CCCNC(=N)N)C(=O)CCl)C(C)C [Decanoyl RVKR chloromethyl ketone] (Decanoyl-RVKR-CH2Cl) | 0.0134 |  |  |  |  | 
2 | COc1cc(/C=C/C(=O)CC(=O)/C=C/c2ccc(O)c(OC)c2)ccc1O [Curcumin] |  | 9.64 | 64.2 | 72.6 | 62.6 | 
3 | NC(=O)c1ncn([C@@H]2O[C@H](CO)[C@@H](O)[C@H]2O)n1 [Ribavirin] |  |  |  |  |  | 83
4 | O=C(/C=C/c1ccc(O)cc1)CC(=O)/C=C/c1ccc(O)cc1 [BDMC, Bisdemethoxycurcumin] |  | 34 |  | 78 | 48 | 
